Source: US11214594B2, “Antimicrobial peptide having synergistic antibacterial effect with antibiotics on multidrug resistant bacteria, and use thereof” (priority 2016, dated 2022)
≈ marks a conversion by molar mass, not a printed value. Where a SMILES comes first, the peptide text is derived from it.

Assays:
E. coli [1] = test: microbe, parasite or virus in culture; assay type: cell-based, Escherichia coli; conditions: 16 h
Procedure, shortened: (§1)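 Each strain is brought to 2×10^6 CFU in nutrient-sufficient Mueller-Hinton medium and dispensed into wells. Peptide solutions, stepwise diluted 2:1 in the same medium, are then added. The minimal concentration preventing growth gives the MIC.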

MDREC 1229 [2] = test: microbe, parasite or virus in culture; assay type: cell-based, Escherichia coli
Procedure, shortened: as §1

P. aeruginosa = test: microbe, parasite or virus in culture; assay type: cell-based, Pseudomonas aeruginosa
Procedure, shortened: as §1

MDRST 8009 = assay type: cell-based, Salmonella typhimurium; conditions: agent alone
Procedure, shortened: as §1

B. subtilis = test: microbe, parasite or virus in culture; assay type: cell-based, Bacillus subtilis
Procedure, shortened: as §1

S. epidermidis = test: microbe, parasite or virus in culture; assay type: cell-based, Staphylococcus epidermidis
Procedure, shortened: as §1

E. coli [3] = test: MIC of antibiotic during combined treatment with antimicrobial peptide; assay type: cell-based, Escherichia coli; conditions: E. coli
Procedure, shortened: (§2)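 Antibiotic diluted in MH medium, dispensed per well with peptide; setup repeated with roles reversed; MIC read per combination.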

MDREC 1229 [4] = test: as above; assay type: cell-based, Escherichia coli
Procedure, shortened: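 Antibiotic MIC came from antibiotic dilutions added to bacteria (2×10^6 CFU/ml, MH medium) already combined with peptide serially diluted 2:1 from its own MIC. Swapping the roles of the two agents gave the peptide MIC.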

A. baumannii = test: as above; assay type: cell-based, Acinetobacter baumannii; conditions: A. baumannii
Procedure, shortened: as §2

[5] = peptide treatment concentration 1 μg/ml
[6] = peptide treatment concentration 2 μg/ml
[7] = peptide treatment concentration 4 μg/ml
[8] = peptide treatment concentration 6 μg/ml
[9] = peptide treatment concentration 8 μg/ml
[10] = peptide treatment concentration 16 μg/ml
[11] = peptide treatment concentration 32 μg/ml
[12] = peptide treatment concentration 64 μg/ml
[13] = combined with peptide at 1 μg/ml
[14] = combined with peptide at 2 μg/ml
[15] = combined with peptide at 4 μg/ml
[16] = combined with peptide at 6 μg/ml

For CC[C@H](C)[C@H](NC(=O)[C@H](CCCCN)NC(=O)[C@H](Cc1c[nH]c2ccccc12)NC(=O)[C@@H](N)CCCNC(=N)N)C(=O)N[C@@H](Cc1ccccc1)C(=O)N[C@@H](CCCCN)C(=O)N[C@@H](CCCCN)C(=O)N[C@H](C(=O)N1CCC[C@H]1C(=O)N[C@@H](CCCCN)C(=O)N[C@@H](Cc1ccccc1)C(=O)N[C@@H](CC(C)C)C(=O)N[C@@H](Cc1c[nH]cn1)C(=O)N[C@@H](CO)C(=O)N[C@@H](C)C(=O)N[C@@H](CCCCN)C(=O)N[C@@H](CCCCN)C(=O)N[C@@H](Cc1ccccc1)C(N)=O)[C@@H](C)CC [PapMA-1, RWK IFK KIP KFL HSA KKF-NH2] (H-RWKIFKKIPKFLHSAKKF-NH2; N-terminus assumed), the “Minimal inhibitory concentration MIC” value (E. coli [1]) was 64 µg/mL (≈ 27.8 µM), the “Minimal inhibitory concentration MIC” value (MDREC 1229 [2]) was 64 µg/mL (≈ 27.8 µM) and the “Peptide MIC, peptide alone” value (MDREC 1229 [2]) was 64 µg/mL. The “Minimal inhibitory concentration MIC” value (P. aeruginosa) was 16 µg/mL (≈ 6.95 µM), the “Minimal inhibitory concentration MIC” value (MDRST 8009) was 64 µg/mL (≈ 27.8 µM) and the “Minimal inhibitory concentration MIC” value (B. subtilis) was >128 µg/mL. For the same compound, the “Minimal inhibitory concentration MIC” value (S. epidermidis) was >128 µg/mL, the “Antibiotic MIC, Erythromycin” value (E. coli [3]; erythromycin combined with peptide at 1 μg/ml) was 64 µg/mL and the “Antibiotic MIC, Erythromycin” value (E. coli [3]; erythromycin combined with peptide at 2 μg/ml) was 32 µg/mL. The “Antibiotic MIC, Erythromycin” value (E. coli [3]; erythromycin combined with peptide at 4 μg/ml) was 16 µg/mL, the “Antibiotic MIC, Erythromycin” value (E. coli [3]; erythromycin combined with peptide at 6 μg/ml) was 4 µg/mL and the “Antibiotic MIC, Erythromycin” value (E. coli [3]; erythromycin combined with peptide at 8 μg/ml) was 2 µg/mL. For the same compound, the “Antibiotic MIC, Erythromycin” value (E. coli [3]; erythromycin combined with peptide at 16 μg/ml) was 0.5 µg/mL, the “Antibiotic MIC, Erythromycin” value (E. coli [3]; erythromycin combined with peptide at 32 μg/ml) was 0.125 µg/mL and the “Antibiotic MIC, Erythromycin” value (E. coli [3]; erythromycin combined with peptide at 64 μg/ml) was 0 µg/mL. For the same compound, the “Antibiotic MIC, Linezolid” value (E. coli [3]; linezolid combined with peptide at 1 μg/ml) was 128 µg/mL, the “Antibiotic MIC, Linezolid” value (E. coli [3]; linezolid combined with peptide at 2 μg/ml) was 128 µg/mL and the “Antibiotic MIC, Linezolid” value (E. coli [3]; linezolid combined with peptide at 4 μg/ml) was 64 µg/mL. The “Antibiotic MIC, Linezolid” value (E. coli [3]; linezolid combined with peptide at 6 μg/ml) was 16 µg/mL, the “Antibiotic MIC, Linezolid” value (E. coli [3]; linezolid combined with peptide at 8 μg/ml) was 16 µg/mL and the “Antibiotic MIC, Linezolid” value (E. coli [3]; linezolid combined with peptide at 16 μg/ml) was 16 µg/mL. For the same compound, the “Antibiotic MIC, Linezolid” value (E. coli [3]; linezolid combined with peptide at 32 μg/ml) was 8 µg/mL, the “Antibiotic MIC, Linezolid” value (E. coli [3]; linezolid combined with peptide at 64 μg/ml) was 0 µg/mL and the “Antibiotic MIC, Vancomycin” value (E. coli [3]; vancomycin combined with peptide at 1 μg/ml) was >128 µg/mL. For the same compound, the “Antibiotic MIC, Vancomycin” value (E. coli [3]; vancomycin combined with peptide at 2 μg/ml) was >128 µg/mL, the “Antibiotic MIC, Vancomycin” value (E. coli [3]; vancomycin combined with peptide at 4 μg/ml) was >128 µg/mL and the “Antibiotic MIC, Vancomycin” value (E. coli [3]; vancomycin combined with peptide at 6 μg/ml) was 32 µg/mL. The “Antibiotic MIC, Vancomycin” value (E. coli [3]; vancomycin combined with peptide at 8 μg/ml) was 32 µg/mL, the “Antibiotic MIC, Vancomycin” value (E. coli [3]; vancomycin combined with peptide at 16 μg/ml) was 16 µg/mL and the “Antibiotic MIC, Vancomycin” value (E. coli [3]; vancomycin combined with peptide at 32 μg/ml) was 4 µg/mL. For the same compound, the “Antibiotic MIC, Vancomycin” value (E. coli [3]; vancomycin combined with peptide at 64 μg/ml) was 0 µg/mL, the “Antibiotic MIC, Erythromycin” value (MDREC 1229 [4]; [5]) was 128 µg/mL and the “Antibiotic MIC, Linezolid” value (MDREC 1229 [4]; [5]) was >128 µg/mL. For the same compound, the “Antibiotic MIC, Vancomycin” value (MDREC 1229 [4]; [5]) was >128 µg/mL, the “Antibiotic MIC, Erythromycin” value (MDREC 1229 [4]; [6]) was 32 µg/mL and the “Antibiotic MIC, Linezolid” value (MDREC 1229 [4]; [6]) was 128 µg/mL. The “Antibiotic MIC, Vancomycin” value (MDREC 1229 [4]; [6]) was >128 µg/mL, the “Antibiotic MIC, Erythromycin” value (MDREC 1229 [4]; [7]) was 16 µg/mL and the “Antibiotic MIC, Linezolid” value (MDREC 1229 [4]; [7]) was 64 µg/mL. The “Antibiotic MIC, Vancomycin” value (MDREC 1229 [4]; [7]) was >128 µg/mL, the “Antibiotic MIC, Erythromycin” value (MDREC 1229 [4]; [8]) was 8 µg/mL and the “Antibiotic MIC, Linezolid” value (MDREC 1229 [4]; [8]) was 64 µg/mL. For the same compound, the “Antibiotic MIC, Vancomycin” value (MDREC 1229 [4]; [8]) was >128 µg/mL, the “Antibiotic MIC, Erythromycin” value (MDREC 1229 [4]; [9]) was 4 µg/mL and the “Antibiotic MIC, Linezolid” value (MDREC 1229 [4]; [9]) was 32 µg/mL. The “Antibiotic MIC, Vancomycin” value (MDREC 1229 [4]; [9]) was 128 µg/mL, the “Antibiotic MIC, Erythromycin” value (MDREC 1229 [4]; [10]) was 1 µg/mL and the “Antibiotic MIC, Linezolid” value (MDREC 1229 [4]; [10]) was 16 µg/mL. For the same compound, the “Antibiotic MIC, Vancomycin” value (MDREC 1229 [4]; [10]) was 16 µg/mL, the “Antibiotic MIC, Erythromycin” value (MDREC 1229 [4]; [11]) was 0.25 µg/mL and the “Antibiotic MIC, Linezolid” value (MDREC 1229 [4]; [11]) was 8 µg/mL. For the same compound, the “Antibiotic MIC, Vancomycin” value (MDREC 1229 [4]; [11]) was 8 µg/mL, the “Antibiotic MIC, Erythromycin” value (MDREC 1229 [4]; [12]) was 0 µg/mL and the “Antibiotic MIC, Linezolid” value (MDREC 1229 [4]; [12]) was 0 µg/mL. The “Antibiotic MIC, Vancomycin” value (MDREC 1229 [4]; [12]) was 0 µg/mL, the “Antibiotic MIC, Erythromycin” value (A. baumannii; [13]) was 32 µg/mL and the “Antibiotic MIC, Linezolid” value (A. baumannii; [13]) was >128 µg/mL. The “Antibiotic MIC, Vancomycin” value (A. baumannii; [13]) was >128 µg/mL, the “Antibiotic MIC, Erythromycin” value (A. baumannii; [14]) was 16 µg/mL and the “Antibiotic MIC, Linezolid” value (A. baumannii; [14]) was 128 µg/mL. For the same compound, the “Antibiotic MIC, Vancomycin” value (A. baumannii; [14]) was 128 µg/mL, the “Antibiotic MIC, Erythromycin” value (A. baumannii; [15]) was 8 µg/mL and the “Antibiotic MIC, Linezolid” value (A. baumannii; [15]) was 32 µg/mL. For the same compound, the “Antibiotic MIC, Vancomycin” value (A. baumannii; [15]) was 32 µg/mL, the “Antibiotic MIC, Erythromycin” value (A. baumannii; [16]) was 2 µg/mL and the “Antibiotic MIC, Linezolid” value (A. baumannii; [16]) was 32 µg/mL. For the same compound, the “Antibiotic MIC, Vancomycin” value (A. baumannii; [16]) was 16 µg/mL.
